Laboratory results: ChEMBL document CHEMBL1131992, “Bifunctional 2-naphthyl propargylic sulfones exhibiting high DNA intercalating and alkylating activity” (Bioorg Med Chem Lett, 1999)

These molecules were tested on P388 (assay: Cytotoxicity against P388 cell line(mouse T cell leukemia)).
Assay type: functional, cell-based

SMILES | IC50 [µM]
O=S(=O)(CC#CCCCC#CCO)c1ccc2ccccc2c1 | 10
O=C(OCC#CCCCC#CCS(=O)(=O)c1ccc2ccccc2c1)c1ccc2c(c1)C(=O)c1ccccc1C2=O | 41
O=C(OCC#CCCCC#CCS(=O)(=O)c1ccc2ccccc2c1)c1cccc2cc3ccccc3cc12 | 42
O=C(OCC#CCCCC#CCS(=O)(=O)c1ccc2ccccc2c1)c1ccc2cc3ccccc3cc2c1 | 17

Each molecule was assayed on Nucleic Acid (assay: DNA cleavage activity as 70% FormI DNA cleavage).
Assay type: nucleic-acid assay

SMILES | C70 [µM]
CCCC(O)C#CCS(=O)(=O)c1ccc2ccccc2c1 (stereo not drawn) | 5
CCCC(O)C#CCS(=O)(=O)c1ccccc1 (stereo not drawn) | 800
O=S(=O)(CC#CCCCC#CCO)c1ccccc1 | 1000
O=S(=O)(CC#CCCCC#CCO)c1ccc2ccccc2c1 | 10
